Results as given in US8945921B2, “Modulating the production of neurons and/or oligodendrocytes from white matter progenitor cells” (Cornell Research Foundation, Inc., priority 2003, dated 2015).

Tested on: adult human white matter progenitor cells (WMPCs)
Test: Tyrosine phosphatase inhibition: oligodendrocyte differentiation of cultured WMPCs (A2B5/O4/BrdU immunocytochemistry)
Format: cell-based
Description: WMPCs were distributed onto 12-well plates coated with poly-L-ornithine and fibronectin at 5×10^4 cells/ml in DMEM/F12/N1 supplemented with 10 ng/ml bFGF (Sigma), 10 ng/ml PDGF-AA (Sigma), and 2 ng/ml NT3 (R&D Systems). Stock solutions of 1 μM bpV(phen) (potassium bisperoxo (1,10-phenanthroline) oxovanadate (V); Calbiochem) were prepared before each use. Cells were exposed to concentrations of 0, 1, 5, 10, and 25 ng/ml of bV(phen) immediately upon plating, and every 2 days thereafter for 7 day in vitro.
Cultures were exposed continuously to 10 μg/ml BrdU beginning 24 hours before fixation. After 7 days in vitro, A2B5 and O4 were immunolabeled as previously described (Roy et al., “Identification, Isolation, and Promoter-defined Separation of Mitotic Oligodendrocyte Progenitor Cells from the Adult Human Subcortical White Matter,” J. Neurosci 19:9986-95 (1999), which is hereby incorporated by reference in its entirety). For multiple antigen labeling, O4 and A2B5 were localized on live cells that were then fixed with 4% paraformaldehyde and immunostained for BrdU. O4 supernatant was used at a dilution of 1:100 and monoclonal antibody A2B5 supernatant (clone 105, American Type Culture Collection) was used in a 1:1 ratio with DMEM/F12/N, both for 40 minutes at 4° C. Rat anti-BrdU antibody (Harlan) was used at a dilution of 1:200. Fixed cultures were counterstained with DAPI (10 ng ml; Molecular Probes). The number of A2B5 and O4 stained and unstained cells were counted in 10 randomly chosen fields at each dosage level, from individual replicate samples (n=4). Statistical significance was assessed by one-way repeated measures analysis of variance (ANOVA), followed by Tukey's multiple comparisons test (GraphPad Prism 3.0, p<0.05).
Due to the high expression of the tyrosine phosphatase receptor RTPβ/ζ in WMPCs, the effect of tyrosine phosphatase inhibition on the differentiation of WMPCs was assessed. bpV(phen), a known potent inhibitor of tyrosine phosphatase activity, was used to induce inhibition (Posner et al., “Peroxovanadium Compounds. A New Class of Potent Phosphotyrosine Phosphatase Inhibitors Which Are Insulin Mimetics,” J Biol Chem 269: 4596-4604 (1994); Bevan et al., “Selective Activation of the Rat Hepatic Endosomal Insulin Receptor Kinase. Role for the Endosome in Insulin Signaling,” J Biol Chem 270: 10784-10791 (1995); Faure et al., “Arrest at The G2/M Transition of the Cell Cycle by Protein-Tyrosine Phosphatase Inhibition Studies on a Neuronal and a Glial Cell Line,” J Cell Biochem 59: 389-401 (1995), which are hereby incorporated by reference in their entirety). […] Statistical significance was first detected at 1 ng/ml bpV(phen) in the A2B5 positive population and 10 ng ml bpV(phen) in the O4 positive population. The O4/A2B5 ratio rose drastically from under 10 percent to 70 percent in response to 25 ng/ml treatment with bpV(phen) (FIG. 1E).

[1] = 7 days in vitro, doses 0, 1, 5, 10, 25 ng/ml
[2] = between dosage levels 0-25 ng/ml, 7 days in vitro

For `O.O.O.OO.OO.[K+].[OH-].[V].c1cnc2c(c1)ccc1cccnc12` [bpV(phen), potassium bisperoxo (1,10-phenanthroline) oxovanadate (V)], the “percentage of O4+ cells” value (25 ng ml, 7 days in vitro, n=4 patients, untreated 20±8.4%) was 54±17.6%, the “percentage of progenitor A2B5+ cells” value (25 ng/ml, 7 days in vitro, n=4 patients, untreated 15±2.2%) was 4±0.5% and the O4/A2B5 ratio (25 ng/ml, 7 days in vitro, untreated under 10 percent) was 70%. For the same molecule, the “concentration at which statistical significance was first detected, A2B5 positive population” value [1] was 1 ng/mL, the “concentration at which statistical significance was first detected, O4 positive population” value [1] was 10 ng·mL and the “effect on WMPC expansion and differentiation” value (WMPCs exposed to the RTP inhibitor) was “ceased expansion and differentiated as oligodendrocytes”. The “number of A2B5+ BrdU+ cells” value [2] was “unchanged” and the total cell number [2] was “unchanged”.
